According to US11540515B2, “Use of dialkoxybenzenes for control of honey bee mite varroa destructor” (Simon Fraser University, priority 2018, dated 2023):

Legend:
[1] = system: honey bee antennae; assay: Electroantennography (EAG) on honey bee antennae stimulated with nurse bee headspace odor; parameters: species or system Apis mellifera
Excerpt: In the electroantennography (EAG), the Varroa foreleg or bee antennae were used for the assay. The organs were stimulated by puffs of nurse honeybee odor, or clean air (control). Briefly, once a foreleg or bee antenna preparation was found responsive to a positive stimulus, the tested chemical was blown over the leg/antenna with or without positive stimuli. Headspace of five nurse bees was used as a positive stimulus. This stimuli were selected for Varroa following the procedure described, for example, in Eliash, N. et al., (2014) PLoS One, (2014) 9(12): e116127, incorporated herein by reference in its entirety, and following dose response tests on nurse antennae challenged with headspace of 1, 5 and 10 nurse or forager bees. Electrophysiological responses of isolated Varroa foreleg and bee antennae were recorded using Synthech equipment, and the order of stimuli was as explained in Singh, K. N. et al., (2014) Apidologie, 46: 380-391, incorporated herein by reference in its entirety. The response amplitude was recorded for each stimulus and normalized relative to air.

[2] = system: Varroa; assay: Choice bioassay (forager vs nurse bee) in petri dish; type: in vivo, Varroa destructor; details: in presence of compound, monitored for 3 hours
Experimental: Functional activity of the compound was performed using choice bioassay. Briefly, in the presence of the synthetic compound or solvent as a control, the mites were given a choice of two bees (a forager and a nurse) in a petri dish (90 mm diameter and 17 mm deep glass). The movement of Varroa and its host preference were monitored at every hour for 3 hours.

[3] = system: Varroa mites; assay: Example 2 dose response assay on 10 mites per plate; type: in vivo, Varroa destructor; details: doses in microgram
Experimental: The experiments were conducted in glass petri dish under control environment as described above in Example 1. Two sets of experiments were conducted compound 3c{3,6}:
1. Dose response assay on 10 mites per plate. Doses are in microgram.
In the first assay the percentage of dead mites as function of exposure time to different quantities of the compound was measured. […] The effective doses are relatively high.

[4] = system: honey bees; assay: Bee mortality in hoarding cages, 3c{3,6} sensed by smell; type: in vivo, Apis mellifera
Experimental: 3c{3,6} sensed by smell: Bees were maintained in the classic hoarding cages. The test was conducted on twenty freshly collected bees in hoarding cages as above. The method that was used for screening potentially harmful compounds was as described, for example, in Medrzycki et al., 2013 (J. Apicultural Res. 52 (4): UNSP 52.4.14, http://dx.doi.org/10.3896/IBRA.1.52.4.14, incorporated herein by reference in its entirety. The bees were provided with water and candy at lib. The experiments were conducted in ten sets in the presence of 30 μl of hexane containing 300 μg of the 3c{3,6} compound presented in Parafilm (5×5 cm); 30 μl of pure hexane was used for control. The experimental and control cages were kept in separate incubators at (28-30° C.) and RH (50-70%) and the bee mortality rate was recorded at 24, 48 and 72 hours. Survival of bees in control and treated groups at the end was similar (79-90%).

[5] = system: honey bees; assay: Bee mortality in hoarding cages, 3c{3,6} provided in sugar solution; type: in vivo, Apis mellifera
Experimental: 3c{3,6} provided in sugar solution: The test was conducted on twenty freshly collected bees in hoarding cages as described above. […] In addition, no differences were apparent in the general behavior of the honeybees. Furthermore, honey bees can ingest compound 3c{3,6} without harm and without increase in mortality.

[6] = system: Varroa destructor mites; assay: Example 3 paralysis assays in petri dishes (dose response, screen, blends); type: in vivo
Experimental: Paralysis assays. These assays were done in 10 cm glass Petri dishes. A 3×3 cm piece of Parafilm was stuck to the lid of the dish, in the middle. The Parafilm received […], either pure (controls) or with the compound (treatments). The bottom of the dish received one freshly thawed nurse and one freshly thawed forager, placed ˜3 cm from the center of the dish. One mite was placed between the nurse and the forager, the lid was closed and groups of dishes were placed in an incubator at 30° C. Humidity levels were kept at around 35-40%.
Observation times were 3 h and 5 h. Mites were scored for whether the mite could move normally, was paralyzed (had difficulty moving) or dead (not moving).
Each assay was done in 5 technical replicates, in two biological replicates. Thus, each biological replicate was scored out of 5.
Experiments were performed in the dishes: i) dose response assays with a single compound at different doses of compound on the Parafilm (1 ng, 10 ng, 100 ng, 1 μg, 10 μg, 100 μg, 1 mg and 10 mg), ii) a screen with six compounds, all at a 1 mg dose, iii) an assay with blends of compounds 3c{3,6} and 3c{6,6}, and iv) one assay without bees (only to check for mite paralysis and death), with compounds 3c{3,6} and 3c{6,6}(pure or 1:1 blend), at 0.5 and 1 mg doses.

[7] = system: Varroa; assay: Example 5 Varroa death and paralysis assay, single compounds and blend; parameters: species or system Varroa destructor; details: in vivo
Experimental: Assays were done in 9 cm glass Petri dishes. A 2.5×2.5 cm piece of Parafilm was stuck to the lid of the dish, in the middle. 120 μL water were put on filter paper in the middle of the plate. The Parafilm received 10 μL of hexane, either pure (controls) or with the compound (treatments). The bottom of the dish received one freshly thawed nurse and one freshly thawed forager, placed at opposite sides. One mite was placed between the nurse and the forager, the lid was closed and groups of dishes were placed in an incubator at 30° C. Observation times were at 3 h, 5 h and 20 h. Mites were scored for whether the mite could move normally, was paralyzed (had difficulty moving) or dead (not moving). Four types of experiment were performed in the dishes: i) dose response assays with a single compound at different doses of compound on the Parafilm (1 ng, 10 ng, 100 ng, 1 μg, 10 μg, 100 μg, 1 mg) an assay with blends of compounds 3c{3,6} and 3c{6,6} (pure or 1:1 blend) at 0.5 mg and […].

SMILES: C=CCOc1ccc(OCCC)cc1 [3c{3,6}, 1-allyloxy-4-propoxybenzene]
- response of honey bee antennae towards nurse bee head space odor [1]: not affected
- ability of Varroa to reach any host [2]: decreased
- percentage of dead mites as function of exposure time to different quantities (acaricidal effect, FIG. 1) [3]: clear and it is dose dependent
- Survival of bees at the end ([4]; 300 μg in 30 μl hexane on Parafilm, 72 hours, control and treated groups similar): 79-90%
- lethal effect to the honey bees ([4]; in vivo): No lethal effect
- effect on the honeybees [5]: did not have negative effect
- bees died at the end of experiment ([5]; after 72 hours, treated group (control 21%)): 5%
- paralysis and mite death in screen ([6]; 1 mg dose, 3 h): most reliable mite paralysis
- net paralysis+death of mites, comparison of compounds ([6]; 0.5 and 1 mg/treatment): more active than 3c{6,6}
- EC50 for paralysis and eventual death of mites ([6]; neat compound on the source, vapors only, 3 h): 41.5 µg
- acaricidal activity alone [7]: acaricidal
